Marks after values point to notes of the source that are not given here.
Test system: mice
Test: Spontaneous tumors in mice at autopsy
Type: in vivo
Conditions: for spontaneous tumors, Number, in %: mice, untreated control = 100
Description: The maximum life span (MLS) of mice according to our long-term statistical observations is 2.7-3, 2 years, i.e. in average 2.95 years or 1077 days. For this study we selected mice (10 individuals per group), males with dominant behavior in mixed groups, that safely survived to 985 days without signs of pronounced senility and with satisfactory orientation-exploratory behavior, determined by the “open field test” method. Phenotropil in doses of 25, 50 and 100 mg/kg was administered orally with 5.0% glucose solution. Glucose solution was used solely to improve the solubility of the drug. One control group received the glucose solution and the second one—distilled water. The third control group was not treated.
The greatest effect (Table 18) was obtained after treatment with Phenotropil in doses of 25 mg/kg (23.3%) and 100 mg/kg (24.0%). […] With a sample of 30 individuals in total in the three groups, we can talk about a high reliability of the findings.

SMILES: NC(=O)CN1CC(c2ccccc2)CC1=O (racemic) [Compound 1, (RS)-2-(2-oxo-4-phenylpyrrolidine-1-yl)acetamide]
- incidence and severity of spontaneous tumors lower by (100 mg/kg): 2.37 times
- spontaneous tumors, Number, in % (25 mg/kg + 5.0% glucose solution): 57.0* %
- spontaneous tumors, Number, in % (50 mg/kg + 5.0% glucose solution): 74.5* %
- spontaneous tumors, Number, in % (100 mg + 5.0% glucose solution): 42.2* %

Reference: patent US20140315972A1, “RS)-2-(2-oxo-4-phenylpyrrolidin-1-yl)acetamide compound having modulatory activity with a commensurate effect, pharmaceutical substance (variants) and its application, composition (variants) thereof” (priority 2011, published 2014)
